Structures can show the parent of a compound that is named as a salt.
Experiments:
rat TAAR1 = rat TAAR1 (Rattus norvegicus (Rat), UniProt Q923Y9); assay: Radioligand binding assay on rat TAAR1; conditions: rat TAAR1, HEK-293 membranes; second value of the pair (line below); read-out: Ki (μM) mouse/rat
Outline: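 Membranes from HEK293 cells stably expressing rat TAAR1 were incubated 1 hr at 4 °C with ^3[H]-(S)-4-[(ethyl-phenyl-amino)-methyl]-4,5-dihydro-oxazol-2-ylamine; nonspecific binding was defined with 10 μM unlabeled ligand. Compounds were tested at 10 pM to 10 μM in duplicate. Bound radioactivity was read by filtration and scintillation counting.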

mouse TAAR1 = mouse TAAR1 (Mus musculus (Mouse), UniProt Q923Y8); assay: Radioligand binding assay on mouse TAAR1; conditions: mouse TAAR1, HEK-293 membranes; first value of the pair (before the slash); read-out: Ki (μM) mouse/rat
mouse TAAR1, sequence (Q923Y8 whole entry): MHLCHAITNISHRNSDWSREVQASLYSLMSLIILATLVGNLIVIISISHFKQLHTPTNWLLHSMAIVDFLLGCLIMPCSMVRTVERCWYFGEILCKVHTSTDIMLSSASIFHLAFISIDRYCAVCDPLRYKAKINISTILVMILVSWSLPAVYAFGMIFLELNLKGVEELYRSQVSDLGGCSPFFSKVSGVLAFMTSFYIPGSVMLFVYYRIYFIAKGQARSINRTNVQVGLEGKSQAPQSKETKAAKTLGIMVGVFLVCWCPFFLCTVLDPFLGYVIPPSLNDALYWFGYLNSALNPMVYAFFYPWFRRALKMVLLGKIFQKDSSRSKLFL
Outline: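 Membranes from HEK293 cells stably expressing mouse TAAR1, in HEPES-NaOH pH 7.4 with 0.1 mM EDTA, were incubated 1 h at 4°C with tritiated (S)-4-[(ethyl-phenyl-amino)-methyl]-4,5-dihydro-oxazol-2-ylamine and compound (10 pM–10 μM, duplicates). Nonspecific binding defined with 10 μM unlabeled ligand; bound radioactivity by filtration and scintillation counting.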

rat TAAR1, sequence (Q923Y9 whole entry): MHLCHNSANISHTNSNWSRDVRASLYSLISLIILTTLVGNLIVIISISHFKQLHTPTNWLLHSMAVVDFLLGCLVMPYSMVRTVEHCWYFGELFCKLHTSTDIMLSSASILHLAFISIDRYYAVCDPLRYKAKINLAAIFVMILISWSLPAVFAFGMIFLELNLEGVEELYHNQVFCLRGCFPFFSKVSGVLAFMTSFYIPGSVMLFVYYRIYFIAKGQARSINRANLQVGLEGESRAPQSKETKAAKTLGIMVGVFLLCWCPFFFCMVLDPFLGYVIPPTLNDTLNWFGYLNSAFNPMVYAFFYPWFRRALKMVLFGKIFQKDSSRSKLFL

Structure (SMILES) | Ki (rat TAAR1) [µM] | Ki (mouse TAAR1) [µM]
O=C(Nc1ccc([C@H]2CNCCO2)cc1F)c1cn(-c2ccc(OC(F)F)cc2)nn1 [Example 104, (S)-1-(4-(Difluoromethoxy)phenyl)-N-(2-fluoro-4-(morpholin-2-yl)phenyl)-1H-1,2,3-triazole-4-carboxamide] | 0.034 | 0.0019
O=C(Nc1ccc(C(F)(F)F)cn1)Nc1ccc([C@@H]2CNCCO2)cc1Cl [Example 54, (R)-1-(2-Chloro-4-(morpholin-2-yl)phenyl)-3-(5-(trifluoromethyl)pyridin-2-yl)urea] | 0.0018 | 0.003
N#Cc1cc(NC(=O)Nc2ccc([C@H]3CNCCO3)cc2F)ccc1F [Example 27, 1-(3-Cyano-4-fluoro-phenyl)-3-((S)-2-fluoro-4-morpholin-2-yl-phenyl)-urea] | 0.0038 | 0.0028
O=C(Nc1ccc([C@H]2CNCCO2)cc1F)c1cnn(-c2ccc(F)cc2)c1 [Example 22, (S)—N-(2-fluoro-4-(morpholin-2-yl)phenyl)-1-(4-fluorophenyl)-1H-pyrazole-4-carboxamide] | 0.0036 | 0.002
N#Cc1cccc(CNC(=O)Nc2ccc([C@@H]3CNCCO3)cc2F)c1 [Example 15, 1-(3-Cyano-benzyl)-3-((R)-2-fluoro-4-morpholin-2-yl-phenyl)-urea] | 0.0544 | 0.0074
Cc1cc(C(=O)Nc2ccc([C@H]3CNCCO3)c(F)c2)cc(C(N)=O)n1 [Example 114, (S)—N4-(3-Fluoro-4-(morpholin-2-yl)phenyl)-6-methylpyridine-2,4-dicarboxamide hydrochloride] | 0.265 | 0.0649
N#Cc1ccc(-n2cc(C(=O)Nc3ccc([C@H]4CNCCO4)c(Cl)c3)cn2)cc1 [Example 105, (S)—N-(3-Chloro-4-(morpholin-2-yl)phenyl)-1-(4-cyanophenyl)-1H-pyrazole-4-carboxamide hydrochloride] | 0.0027 | 0.0032
O=C(Nc1ccc(Cl)nc1)Nc1ccc(C2CCNC2)cc1Cl (racemic) [Example 38, (RS)-1-(6-Chloro-pyridin-3-yl)-3-(2-chloro-4-pyrrolidin-3-yl-phenyl)-urea] | 0.0191 | 0.0029
O=C(Nc1ccc(Cl)nc1)Nc1ccc([C@@H]2CNCCO2)cc1F [Example 8, 1-(6-Chloro-pyridin-3-yl)-3-((R)-2-fluoro-4-morpholin-2-yl-phenyl)-urea] | 0.0039 | 0.0026
N#Cc1ccc(OC(F)F)c(NC(=O)Nc2ccc([C@H]3CNCCO3)cc2F)c1 [Example 71, 1-(5-Cyano-2-difluoromethoxy-phenyl)-3-((S)-2-fluoro-4-morpholin-2-yl-phenyl)-urea hydrochloride] | 0.0012 | 0.0018
O=C(Nc1ccc([C@@H]2CNCCO2)c(F)c1)c1ccnc(C(F)(F)F)c1 [Example 83, (R)—N-(3-Fluoro-4-(morpholin-2-yl)phenyl)-2-(trifluoromethyl)isonicotinamide hydrochloride] | 0.0075 | 0.006
N#Cc1ccc(F)c(NC(=O)Nc2ccc([C@@H]3CNCCO3)cc2F)c1 [Example 56, 1-(5-Cyano-2-fluoro-phenyl)-3-((R)-2-fluoro-4-morpholin-2-yl-phenyl)-urea] | 0.0035 | 0.002
O=C(Nc1ccc([C@H]2CNCCO2)cc1Cl)c1ccc(Cl)cc1 [Example 34, (S)-4-Chloro-N-(2-chloro-4-(morpholin-2-yl)phenyl)benzamide] | 0.0229 | 0.0024
CCOc1ccc(C(=O)Nc2ccc([C@@H]3CNCCO3)c(Cl)c2)cn1 [Example 92, (R)—N-(3-Chloro-4-(morpholin-2-yl)phenyl)-6-ethoxynicotinamide hydrochloride] | 0.0045 | 0.0048
N#Cc1ccc(OC(F)F)c(NC(=O)Nc2ccc([C@@H]3CNCCO3)cc2Br)c1 [Example 60, 1-((R)-2-Bromo-4-morpholin-2-yl-phenyl)-3-(5-cyano-2-difluoromethoxy-phenyl)-urea] | 0.001 | 0.0008
N#Cc1cc(F)cc(NC(=O)Nc2ccc([C@@H]3CNCCO3)cc2F)c1 [Example 59, 1-(3-Cyano-5-fluoro-phenyl)-3-((R)-2-fluoro-4-morpholin-2-yl-phenyl)-urea] | 0.001 | 0.0018
O=C(NCc1cccc(OC(F)F)c1)Nc1ccc([C@H]2CNCCO2)cc1F [Example 78, (S)-1-(3-(Difluoromethoxy)benzyl)-3-(2-fluoro-4-(morpholin-2-yl)phenyl)urea] | 0.0039 | 0.0012

Structure (SMILES) | Ki (rat TAAR1) [µM] | Ki (mouse TAAR1) [µM]
CCOc1cc(C(=O)Nc2ccc([C@H]3CNCCO3)c(F)c2)ccn1 [Example 88, (S)-2-Ethoxy-N-(3-fluoro-4-(morpholin-2-yl)phenyl)isonicotinamide hydrochloride] | 0.0458 | 0.0034
COc1cc(C(=O)Nc2ccc([C@@H]3CNCCO3)cc2F)cc(Cl)n1 [Example 24, 2-Chloro-N—((R)-2-fluoro-4-morpholin-2-yl-phenyl)-6-methoxy-isonicotinamide] | 0.007 | 0.0032
N#Cc1ccc(OC(F)F)c(NC(=O)Nc2ccc([C@@H]3CNCCO3)cc2F)c1 [Example 72, 1-(5-Cyano-2-difluoromethoxy-phenyl)-3-((R)-2-fluoro-4-morpholin-2-yl-phenyl)-urea hydrochloride] | 0.001 | 0.0019
O=C(Nc1ccc([C@H]2CNCCO2)cc1F)c1cnn(-c2ccc(OC(F)F)cc2)c1 [Example 76, (S)-1-(4-(Difluoromethoxy)phenyl)-N-(2-fluoro-4-(morpholin-2-yl)phenyl)-1H-pyrazole-4-carboxamide] | 0.0018 | 0.0016
Cc1cc(C(=O)Nc2ccc([C@H]3CNCCO3)c(Cl)c2)cc(C(N)=O)n1 [Example 118, (S)—N4-(3-Chloro-4-(morpholin-2-yl)phenyl)-6-methylpyridine-2,4-dicarboxamide hydrochloride] | 0.264 | 0.0416
COc1cc(C(=O)Nc2ccc([C@H]3CNCCO3)c(F)c2)cc(C#N)n1 [Example 107, (S)-2-Cyano-N-(3-fluoro-4-(morpholin-2-yl)phenyl)-6-methoxyisonicotinamide hydrochloride] | 0.0065 | 0.0093
Cn1nc(-c2ccccc2)cc1C(=O)Nc1ccc([C@@H]2CNCCO2)cc1F [Example 23, 2-Methyl-5-phenyl-2H-pyrazole-3-carboxylic acid ((R)-2-fluoro-4-morpholin-2-yl-phenyl)-amide] | 0.0033 | 0.0254
NC(=O)c1cc(C(=O)Nc2ccc([C@H]3CNCCO3)c(F)c2)cc(Cl)n1 [Example 116, (S)-6-Chloro-N4-(3-fluoro-4-(morpholin-2-yl)phenyl)pyridine-2,4-dicarboxamide hydrochloride] | 0.162 | 0.0512
O=C(Nc1ccc([C@@H]2CNCCO2)cc1Cl)c1ccn(-c2ccc(F)cc2)n1 [Example 30, (R)—N-(2-Chloro-4-(morpholin-2-yl)phenyl)-1-(4-fluorophenyl)-1H-pyrazole-3-carboxamide] | 0.0012 | 0.032
O=C(Nc1ccc([C@@H]2CNCCO2)cc1F)c1ccn(-c2ccc(F)cc2)n1 [Example 12, 1-(4-Fluoro-phenyl)-1H-pyrazole-3-carboxylic acid ((R)-2-fluoro-4-morpholin-2-yl-phenyl)-amide] | 0.0006 | 0.0026
O=C(Nc1ccc([C@H]2CNCCO2)cc1F)c1cnn(-c2cncc(C(F)(F)F)n2)c1 [Example 125, (S)—N-(2-Fluoro-4-(morpholin-2-yl)phenyl)-1-(6-(trifluoromethyl)pyrazin-2-yl)-1H-pyrazole-4-carboxamide hydrochloride] | 0.0076 | 0.0182
O=C(Nc1ccc([C@H]2CNCCO2)c(F)c1)c1cnn(-c2cc(C(F)(F)F)ncn2)c1 [Example 129, (S)—N-(3-Fluoro-4-(morpholin-2-yl)phenyl)-1-(6-(trifluoromethyl)pyrimidin-4-yl)-1H-pyrazole-4-carboxamide hydrochloride] | 0.0025 | 0.0073
O=C(Nc1ccc(C(F)(F)F)cn1)Nc1ccc([C@H]2CNCCO2)cc1Cl [Example 53, (S)-1-(2-Chloro-4-(morpholin-2-yl)phenyl)-3-(5-(trifluoromethyl)pyridin-2-yl)urea] | 0.0017 | 0.0015
O=C(Nc1ccc([C@@H]2CNCCO2)c(Cl)c1)c1cnn(-c2ccc(OC(F)F)cc2)c1 [Example 93, (R)—N-(3-Chloro-4-(morpholin-2-yl)phenyl)-1-(4-(difluoromethoxy)phenyl)-1H-pyrazole-4-carboxamide hydrochloride] | 0.0012 | 0.0005
O=C(Nc1ccc([C@H]2CNCCO2)cc1Cl)c1cnn(-c2cncc(C(F)(F)F)n2)c1 [Example 126, (S)—N-(2-Chloro-4-(morpholin-2-yl)phenyl)-1-(6-(trifluoromethyl)pyrazin-2-yl)-1H-pyrazole-4-carboxamide hydrochloride] | 0.0047 | 0.0202
N#Cc1ccc(OC(F)F)c(NC(=O)Nc2ccc([C@H]3CNCCO3)cc2Br)c1 [Example 61, 1-((S)-2-Bromo-4-morpholin-2-yl-phenyl)-3-(5-cyano-2-difluoromethoxy-phenyl)-urea] | 0.0025 | 0.0018
Cc1cc(C(=O)Nc2ccc([C@H]3CNCCO3)c(F)c2)cc(C#N)n1 [Example 115, (S)-2-Cyano-N-(3-fluoro-4-(morpholin-2-yl)phenyl)-6-methylisonicotinamide hydrochloride] | 0.0343 | 0.029

Reference: patent US9029370B2, “Substituted benzamide derivatives” (Hoffmann-La Roche Inc., priority 2011, dated 2015)
